The values below come from patent US11253497B2, “Use of derivatives of polyunsaturated fatty acids as medicaments” (Lipopharma Therapeutics, S.L., priority 2009, dated 2022).

A short description of assay [1]: Serum cholesterol, triglycerides and glucose in SHR rats (colorimetric). It counts as in vivo, rat. The following applies: 200 mg/kg daily p.o., 28 days, untreated rats 100%. In a few lines:
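SHR rats dosed p.o. at 200 mg/kg daily for 28 days; serum cholesterol, triglycerides and glucose measured colorimetrically. Values given as percent of untreated control rats, set at 100%.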

The test system of assay [2] is apolipoprotein AI (apoA-I). As to the kind of experiment: Levels of apoA-I in SHR rats (RT-PCR). Format: in vivo, rat. The following applies: 200 mg/kg day p.o., 30 days, before treatment 100%. The method, boiled down:
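SHR rats dosed orally at 200 mg/kg day for 30 days against water vehicle. At study end, blood pressure taken non-invasively by tail cuff and apoA-I assessed as gene expression by RT-PCR.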

The test system of another assay is B6 healthy mice. In words: Radial maze in control animals (B6 healthy mice). It counts as in vivo. The following applies: 20 mg/kg daily po, 3 months. How it is done:
(§1) To test the efficacy of the compounds of the present invention to induce neuroregeneration or inhibit neurodegeneration, an animal model of Alzheimer's disease was used. In this model mice develop neurodegeneration because they express a series of mutant proteins that lead to brain damage (Alzh mice). B6 mice were used as healthy animal controls. Both groups of animals were treated for a period of 3 months with vehicle (water) or with various D-PUFA (20 mg/kg, daily po) since they were an age of 3 months. To determine whether cognitive improvement occurred after treatment, animal behaviour was monitored in the radial maze. The animals are kept on restricted diet to have appetite. In a symmetrical 8-arm radial maze, visual marks were placed to facilitate the orientation of the animal and food (15 mg tablet) was put in four of the arms. The time each animal took to complete the exercise, and the number of errors, were measured using a camera attached to a computer system. In this sense, Alzheimer animals have values about 50% higher than healthy animals, both by the time it takes to perform the exercise and by the number of errors made (FIG. 4B). […] In this regard, the effectiveness of the compound 183B1, 205A1, 205B1, 226A1, 226 V1 was also tested, showing improvements in animals with Alzheimer's disease (times of 98, 92, 93, 86 and 89 seconds, respectively). On the other hand, it is also interesting that these same compounds (183B1, 205A1, 205B1, 226A1, 226B1 and 226V1) also produced reductions in the times taken to complete the experiment in control animals (B6 healthy mice) of 8s, 11s, 12s, 18s, 16s and 14s, respectively. Therefore, it may be concluded that these compounds have significant activity against neurodegeneration and in neuroregeneration.

The subject of the next assay is Alzh mice. As to the kind of experiment: Radial maze in animal model of Alzheimer's disease (Alzh mice). Format: in vivo. The following applies: animals with Alzheimer's disease, 20 mg/kg daily po, 3 months.
From the text: On the vertical axis it is represented the neuronal death (% of control) depending on the fatty acid used (x-axis). The presence of PUFAs induced modest increases in the survival of P19 cells in the presence of NMDA. D-PUFAs induced significant increases in cell survival values, exceeding in more than 200% in the case of 226A1. Since the number of cells in cultures treated cells is higher than in control cells, it may be affirmed that these compounds not only prevent neuronal death induced by NMDA (anti-neurodegenerative) but also are neuroregenerative agents. […] In the Y axis of the left figure it is shown the time taken to complete the exercise and in the vertical Y axis of the right figure the total number of errors made in the implementation of programmed exercise (mean standard error of the mean) (runtime). In both figures, from left to right, it is represented in the X axis the results in healthy mice (control) (first column), in mice with induced Alzheimer and treated with water as vehicle (second column) or in mice treated with the compound 226B1 (third column). Animals with Alzheimer's disease took longer and made more errors than healthy mice, being the differences statistically significant (*, P<0.05).
as §1, with “On the other hand, it is also interesting that these same compounds (183B1, 205A1, 205B1, 226A1, 226B1 and 226V1) also produced reductions in the times taken to complete the experiment in control animals (B6 healthy mice) of 8s, 11s, 12s, 18s, 16s and 14s, respectively. Therefore, it may be concluded that these compounds have significant activity against neurodegeneration and in neuroregeneration.” left out

In a further assay the test system is lung cancer cells A549. In words: Growth of lung cancer cells A549 (IC50). Format: cell-based, human. The following applies: 72 hours of incubation. In a few lines:
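Human A549 lung cancer cells in RPMI 1640 with 10% FBS at 37 °C, 5% CO2, exposed to D-PUFAs or PUFAs, then counted. values are means of three independent experiments.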

Assay [3] concerns breast cancer cells MDA-MB-231. In words: Growth of breast cancer cells MDA-MB-231. Format: cell-based. The following applies: 72 hours of incubation. In a few lines:
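Human cancer cells in RPMI 1640 with 10% FBS at 37 °C, 5% CO2, exposed to D-PUFAs or PUFAs, then counted. Breast MDA-MB-231 cells run under the same conditions; values are means of three independent experiments.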

Another assay relates to COX-2. As to the kind of experiment: Expression of COX-2 in LPS-stimulated monocytes in culture. Format: cell-based, human. The following applies: positive control with LPS 100%. In a few lines:
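Cultured monocytes stimulated with LPS; COX-2 protein level expressed as % inhibition relative to the LPS-only positive control (100%).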

Usually IC50 stands for the concentration that inhibits the measured activity by half. Read a low IC50 as higher potency. Consider `CCC=CCC=CCC=CCC=CCC=CCCC(O)C(=O)[O-].[Na+]` (stereo not drawn) [205B1], for which, in assay [1], the “Cholesterol in serum (top number)” value is reported as 58%, the “Glucose in serum (bottom number)” value is 87% and the “Triglycerides in serum (central number)” value is recorded as 65%. In assay [2], the “Levels of apoA-I” value is given as 264%. Further, the “Reduction in the time taken to complete the experiment” value (from here on “Reduction in the time taken”) with B6 healthy mice is recorded as 12 s. Besides, in the assay on Alzh mice, the “Time to complete the radial maze exercise” value was found to be 93 s. The concentration for half-maximal inhibition (IC50) with lung cancer cells A549 was found to be 202 µM. In addition, in assay [3], the half-inhibitory concentration (IC50) is 208 µM. In the assay on COX-2, the “COX-2 protein levels (expression), percentages of inhibition compared to positive control” value is recorded as 39%.

Regarding `CCC=CCC=CCC=CCC=CCC=CCC=CCC(O)C(=O)O` (stereo not drawn) [226A1], in assay [1], the “Cholesterol in serum (top number)” value was 64%, the “Glucose in serum (bottom number)” value is given as 79% and the “Triglycerides in serum (central number)” value was 71%. Besides, in assay [2], the “Levels of apoA-I” value amounted to 324%. Besides, in the assay on B6 healthy mice, the “Reduction in the time taken” value is reported as 18 s. In the assay with Alzh mice, the “Time to complete the radial maze exercise” value was 86 s. The molecule also showed an IC50 in the assay on lung cancer cells A549 of 195 µM. This molecule had an IC50 in assay [3] of 187 µM. Further, the “COX-2 protein levels (expression), percentages of inhibition compared to positive control” value in the assay on COX-2 amounted to 23%.

As to `CCC=CCC=CCC=CCC=CCC=CCCC(O)C(=O)O` (stereo not drawn) [205A1, 2-hydroxy-5,8,11,14,17-eicosapentaenoic acid], in assay [1], the “Cholesterol in serum (top number)” value is listed as 69%, the “Glucose in serum (bottom number)” value was determined as 82% and the “Triglycerides in serum (central number)” value is listed as 74%. In addition, the “Levels of apoA-I” value in assay [2] came to 346%. Moreover, in the assay with B6 healthy mice, the “Reduction in the time taken” value is on record as 11 s. For the same molecule, in the assay with Alzh mice, the “Time to complete the radial maze exercise” value was determined as 92 s. In the assay on lung cancer cells A549 (Homo sapiens, A549), this molecule gave a 50% inhibitory concentration (IC50) of 394 µM. The 50% inhibitory concentration (IC50) in assay [3] (Homo sapiens, MDA-MB-231) was 390 µM. Moreover, the “COX-2 protein levels (expression), percentages of inhibition compared to positive control” value with COX-2 stood at 31%.

Take `CCC=CCC=CCC=CCCCCCCC(O)C(=O)[O-].[Na+]` (stereo not drawn) [183B1]: in assay [1], the “Cholesterol in serum (top number)” value came to 75%, the “Glucose in serum (bottom number)” value was found to be 84% and the “Triglycerides in serum (central number)” value is recorded as 66%. Further, the “Levels of apoA-I” value in assay [2] is given as 151%. For the same molecule, in the assay on B6 healthy mice, the “Reduction in the time taken” value is given as 8 s. For the same molecule, the “Time to complete the radial maze exercise” value in the assay with Alzh mice is 98 s. The IC50 in the assay with lung cancer cells A549 was 195 µM. This molecule registered a 50% inhibitory concentration (IC50) in assay [3] of 267 µM. In the assay on COX-2, the “COX-2 protein levels (expression), percentages of inhibition compared to positive control” value is on record as 33%.
